Results on 4 molecules are retold here after paper doi:10.1101/2025.07.20.665728 (bioRxiv, 2025).

The IC50 is the midpoint of a concentration-inhibition curve.

Assay [1] relates to C1R.MR1 cells. Kind of assay: Intracellular total folded MR1 by flow cytometry (8F2.F9). It is filed as cell-based. The following applies: C1R.MR1, 100 μM, 16 h.
The subject of another assay is C1R.MR1^K43A cells. As to the kind of experiment: Cell surface MR1 K43A quantification, C1R.MR1^K43A. It is filed as cell-based. From the text:
We then tested the effect of the RF catabolites on the expression of two mutant versions of MR1 termed MR1^R9H ([Howson et al., 2020]) and MR1^K43A ([Reantragoon et al., 2013]). First, we tested the MR1^R9H mutant ([Howson et al., 2020]) which represents a rare, natural human polymorph. […] When C1R. […] Next, we tested sought to understand how the previously characterised Lys43A mutation affects ligand binding. […] While this is in line with the ability of these ligands to bind MR1, the reason for MR1^K43A cell surface accumulation is less clear. The most likely explanation is that these ligands bind ER-resident MR1^K43A, in line with our data using wild-type MR1; however, because the K43A mutation results in spontaneous MR1 surface egress, the presence of these stabilising ligands promotes enhanced trafficking and/or retention at the cell surface. We cannot rule out however that the ligands may also bind directly to surface MR1^K43A and slow down the recycling from cell surface.
The level of MR1 expressed on the cell surface was measured after the exposure to the investigated ligands as previously described ([Awad et al., 2020a]; [Wang et al., 2022a]). C1R antigen presenting B lymphocytes overexpressing MR1*01 (C1R.MR1), MR1^K43A mutant (C1R.MR1^K43A), MR1^R9H mutant (C1R.MR1^R9H) or HLA-A*02:01 (C1R-A2), in addition to the monocytic THP-1-MR1 cells, were used in this study. 2 x 10^5 cells were incubated with RF catabolites for 3 or 16 h at 37° C and 5% CO2 in 200 μl folate-free RPMI 1640 medium from Gibco (Cat. No. 11875-093) fortified with 10% fetal bovine serum (FBS), sodium pyruvate (1 mmol/L), Hepes buffer (15 mmol/L), pH 7.2 to 7.5, 2% penicillin (100 U/ml), streptomycin ([…]), glutamax (2 mmol/L), nonessential amino acids (0.1 mmol/L) (all from ThermoFisher, Life Technologies), and 2-mercaptoethanol ([…], Sigma) (RF-10). After incubation, the cells were first stained with Zombie Aqua Fixable Viability Kit from BioLegend (Cat. No. 423102) and then incubated with biotinylated 8F2F9 αMR1 antibody for 30 minutes on ice. The unbound antibody was then washed off with 2% fetal bovine serum/PBS. The cells were finally incubated with PE-conjugated streptavidin (BioLegend, 30 μg/ml) and then washed with 2% fetal bovine serum/PBS. The PE fluorescence intensity reflects the surface MR1 level. The data was acquired with an LSRFortessa X-20 (BD Biosciences) and Diva software (BD Biosciences) and analyzed using FlowJo software (BD Biosciences).
Figure S2. Responses of different APCs to RF catabolites. […] C1R cells expressing (b) wild-type level of MR1*01, or overexpressing (c) HLA-A*02:01 or (d) MR1.K43A mutant were incubated for the indicated periods with titrated quantities of ligand followed by flow cytometry. The C1R and C1R.A2 cells were stained with biotinylated 8F2F9 and W6/32, respectively; followed by PE-labelled streptavidin. In all experiments, the MR1 and HLA-A*02:01 surface expression are depicted as a fold change from basal surface expression upon incubation with the vehicle (1 mM NaOH). Each column represents the average of at least three independent experiments performed in duplicate with standard error (SEM) represented by error bars. One-way ANOVA statistical analysis was performed for all samples followed by Dunnett multiple comparison test using NaOH as a control (ns; not significant, * p <0.05, **p < 0.01, ***p < 0.001, ****p < 0.0001).

Assay [2] has as its system C1R.MR1 cells. Kind of assay: Competition with Ac-6-FP/5-OP-RU-induced MR1 upregulation, C1R.MR1. In kind it is cell-based. The settings on record: for reduction of Ac-6-FP response: 200 μM (highest concentration), overnight, cell line not given.
A further assay deals with T1, hMR1 protein (Homo sapiens, UniProt Q95460).
T1 construct: plasmids encoding for the extracellular domains of MR1, β2m, and the AF-7 TCRα and TCRβ chains; made in house
T1 sequence (Q95460 23-302 limits assumed): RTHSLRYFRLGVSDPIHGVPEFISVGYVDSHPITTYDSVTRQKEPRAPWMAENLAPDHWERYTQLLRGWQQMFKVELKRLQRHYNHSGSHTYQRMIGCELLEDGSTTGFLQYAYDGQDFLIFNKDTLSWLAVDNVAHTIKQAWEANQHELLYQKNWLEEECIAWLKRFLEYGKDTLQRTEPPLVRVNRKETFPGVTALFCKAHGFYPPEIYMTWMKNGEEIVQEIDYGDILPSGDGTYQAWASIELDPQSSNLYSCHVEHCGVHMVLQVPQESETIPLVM
T1 sequence (P61769 21-119 partner): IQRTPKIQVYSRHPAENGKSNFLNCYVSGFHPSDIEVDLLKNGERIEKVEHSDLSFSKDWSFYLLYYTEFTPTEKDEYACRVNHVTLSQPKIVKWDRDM
As to the kind of experiment: Fluorescence polarization (FP)-based cell-free MR1 binding assay (competition with JYM20). In general terms: Fluorescence polarisation rises when a labelled molecule tumbles more slowly, as on binding a larger partner.

The next assay deals with soluble WT MR1. Kind of assay: Fluorescence-based thermal shift assay of MR1-ligand complexes. It is filed as binding, human. The following applies: MR1 refolded with the ligand, Sypro Orange, three independent experiments.
Another assay has as its system MAIT cells in human PBMC. Kind of assay: Primary MAIT activation (CD69) in PBMCs. It is filed as cell-based. The settings on record: 16 h, co-incubation with 5-OP-RU.
Assay [3] concerns SKW-3 cells expressing AF-7 (TRAV1-2/TRBV6-1) TCR. As to the kind of experiment: MAIT cell activation assay, SKW-3 AF-7 TCR co-cultured with C1R.MR1. The settings on record: for 5-OP-RU-induced activation (CD69): SKW-3 AF-7, in presence of 1 nM 5-OP-RU; for CD69 surface expression (activation): SKW-3 AF-7, ligand alone. In kind it is cell-based. The protocol:
Next, we explored whether RF catabolites could activate SKW-3 cells expressing two different MAIT TCRs. Distinct responses of T cells expressing TCRs with varying TRBV chain usage reinforces the role of Vβ in modulating MAIT responses to various ligands ([Chancellor et al., 2023]; [Gherardin et al., 2016]; [Seneviratna et al., 2022]).The surface expression of CD69 was measured as a marker for activation of cells expressing the AF-7 (TRAV1-2/TRBV6-1) or MBV28 (TRAV1-2/TRBV28) TCRs after co-culture with C1R.MR1 cells and the ligands.
C1R.MR1 cells (1 x 10^5) were initially stained with CTV for 15 minutes and then incubated with RF catabolites for 20 h. […] Cells were subsequently stained with PE-Cy7-conjugated anti-CD69 (BD; 1:100) and PE-labelled anti-MR1 (26.5 clone; BD; 1:100), before analysis on LSRFortessa (BD Biosciences) flow cytometer. Activation of SKW-3-MAIT cells was reflected by the cell-surface CD69 expression.

Setting [4] is: competition with 10 nM JYM20 for 100 nM empty hMR1, 37°C, read-out: IC50.

Where “and” joins values, the source holds several entries; their conditions need not be identical. Identical values can stand only once. Like-named read-outs stand apart in the source and are kept apart here.

In the case of `O=c1nc2[nH]c3ccccc3nc-2c(=O)[nH]1` [Alloxazine, alloxazine], the “total level of folded MR1 (intracellular staining with 8F2.F9)” value in the assay on C1R.MR1 cells [1] was “also increased the total level of folded MR1”. In addition, the “MR1^K43A at the cell surface” value with C1R.MR1^K43A cells (3 h) was “increased”. For the same molecule, the “reduction of Ac-6-FP response” value in the assay with C1R.MR1 cells [2] (then 10 μM Ac-6-FP 3 h) is “more than 80%”. Further, the IC50 on hMR1 protein (setting [4]) came to 13.4 µM. In addition, the “Tm50 (half maximum melting temperature), Mean ± SD” value (“Tm50 … Mean ± SD” below) in the assay with soluble WT MR1 (listed as MR1-alloxazine) was 49.9–52.0 °C.
Turning to `Cc1cc2nc3[nH]c(=O)[nH]c(=O)c3nc2cc1C` [Lumichrome, 7,8-dimethylalloxazine], in the assay with C1R.MR1 cells [1], the “total level of folded MR1 (intracellular staining with 8F2.F9)” value was “also increased the total level of folded MR1”. Moreover, the “MR1^K43A at the cell surface” value with C1R.MR1^K43A cells (3 h) was “increased”; in the assay on C1R.MR1^K43A cells (16 h) it was “MR1 upregulation continues”. Further, the “competition with 5-OP-RU for MAIT activation (CD69)” value in the assay with MAIT cells in human PBMC is “most potent competitor”. The “5-OP-RU-induced activation (CD69)” value in assay [3] was “enhanced the 5-OP-RU-induced CD69 expression”. Also, in assay [3], the “CD69 surface expression (activation)” value is “minor reductions in CD69”. In assay [3] (SKW-3 AF-7 co-culture with 5-OP-RU), the “MR1 expression on C1R.MR1 in co-culture” value is given as “dose-dependent reduction in MR1 expression”. Moreover, in the assay with C1R.MR1 cells [2] (then 10 μM Ac-6-FP 3 h), the “reduction of Ac-6-FP response” value is “more than 80%”. In addition, the concentration for half-maximal inhibition (IC50) on hMR1 protein (setting [4]) stood at 12.5 µM. Also, the “Tm50 … Mean ± SD” value in the assay with soluble WT MR1 (listed as MR1-lumichrome) was 49.9–52.0 °C.
For the molecule `Cc1cc2nc3c(=O)[nH]c(=O)nc-3n(C)c2cc1C` [Lumiflavin], in the assay on C1R.MR1^K43A cells (3 h), the “MR1^K43A at the cell surface” value was “increased”. Moreover, in assay [3], the “5-OP-RU-induced activation (CD69)” value was “slightly exaggerated” and the “CD69 surface expression (activation)” value is “minor increase in CD69”. For the same molecule, the “reduction of Ac-6-FP response” value in the assay on C1R.MR1 cells [2] (then 10 μM Ac-6-FP 3 h) is “more than 80%”. Besides, the IC50 at hMR1 protein (IC50, competition with 10 nM JYM20 for 100 nM empty hMR1, 37°C) is 22.8 µM. Also, the “Tm50 … Mean ± SD” value in the assay with soluble WT MR1 (listed as MR1-lumiflavin) is 49.9–52.0 °C.
With `Cc1cc2nc3c(=O)[nH]c(=O)nc-3n(C[C@H](O)[C@H](O)[C@H](O)CO)c2cc1C` [RF, Riboflavin], the “MR1^K43A at the cell surface” value in the assay with C1R.MR1^K43A cells (16 h) is “MR1 upregulation continues”. In the assay with MAIT cells in human PBMC, the “competition with 5-OP-RU for MAIT activation (CD69)” value is listed as “potent concentration-dependent competition”. In assay [3], the “5-OP-RU-induced activation (CD69)” value is recorded as “could not compete with 5-OP-RU” and the “CD69 surface expression (activation)” value was “minor increase in CD69”. The “effect on Ac-6-FP-induced cell surface upregulation of MR1” value with C1R.MR1 cells [2] (C1R.MR1, 1–200 μM overnight, then 10 μM Ac-6-FP 3 h) is recorded as “did not modulate”. Moreover, in the assay on C1R.MR1 cells [2] (C1R.MR1, 1–200 μM overnight, then 5-OP-RU 3 h), the “effect on 5-OP-RU-induced cell surface upregulation of MR1” value is on record as “did not modulate”. For the same molecule, the IC50 on hMR1 protein (setting [4]) was ~182 µM and 182 µM.
